Test results: US20250143933A1, “ENDOSCOPIC, PERCUTANEOUS AND OTHER METHODS FOR DISSOLUTION OF PANCREATIC NECROSIS” (The Johns Hopkins University, priority 2021, published 2025)

Assays:
[1] = cited from earlier work
[2] = concentrations higher than 30%; cited from earlier work
[3] = previous attempts, literature; cited from earlier work
[4] = Ex vivo dissolution of solid WON debris by candidate debridement compounds; set-up: species or system human
Experimental: To perform preliminary proof-of-concept testing, solid WON debris was collected from seven patients undergoing endoscopic necrosectomy. […] Several candidate compounds that might be suitable, alone or in combination, for WON debris dissolution were identified. The candidate debridement compounds were tested on ex vivo samples to assess their capacity for dissolving WON debris.

[O][Cl+][O-] [Chlorine dioxide, reference compound]
Effect compared to 5.8% NaOCl ([1]; chlorine dioxide 13.8%): shown to be similar

OO [Hydrogen peroxide, reference compound]
Toxicity (local damage) [2]: shown to be toxic | Success as chemical dissolution agent to aid endoscopic necrosectomy [3]: minimal success

OCl [NaOCl, Sodium hypochlorite]
Solvent properties in WON samples ([4]; ex vivo, concentration of 5% (FIG. 4)): excellent solvent properties | Time to breakdown of human pancreas necrosis debris ([4]; petri dish, dilute sodium hypochlorite 2.5% (FIG. 4)): within minutes | Pulp dissolution ([1]; 8.25% NaOCl, dental surgery studies (Cullen et al., 2015)): rapid pulp dissolution

CC(C)=O [acetone, reference compound]
Effect on WON debris (dissolution) ([4]; ex vivo samples from patients undergoing endoscopic necrosectomy, lipophilic solvent): minimal to no effect

streptokinase: previously tried chemical dissolution agent to aid endoscopic necrosectomy
Success as chemical dissolution agent to aid endoscopic necrosectomy [3]: minimal success

tissue plasminogen activator: previously tried chemical dissolution agent to aid endoscopic necrosectomy
Success as chemical dissolution agent to aid endoscopic necrosectomy [3]: minimal success
